Source: the supplement of paper PMC10307832

What follows are cell lines tested with c1ccc2c(CCNc3ccc(Nc4ccncc4)cc3)c[nH]c2c1 [Serdemetan] + O=C(c1cc(Cc2n[nH]c(=O)c3ccccc23)ccc1F)N1CCN(C(=O)C2CC2)CC1 [Olaparib] (partner 8 µM) (assay: relative viability (nuclei count vs DMSO), 5 days (fraction); higher = more cells survive). Details: first compound 0.04 µM.
Method in brief: (§1)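 Relative viability equals treated-well nuclei counts divided by vehicle-well nuclei counts. Counts came from 4× images of lung cancer cell lines grown in 1536-well plates for 5 days after pin-tool dosing on the day after seeding. Dosing used one drug alone or a fixed anchor-drug dose plus five library-drug doses (not always all listed) in √10 steps, and values are medians of duplicate plates.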

Cell Line | relative viability
CAL-12T | 0.777
NCI-H1651 | 0.179
EPLC-272H | 0.837
NCI-H2228 | 0.493
NCI-H1792 | 0.405
NCI-H1355 | 0.672
NCI-H3122 | 0.597
NCI-H1437 | 0.661
NCI-H1755 | 0.867
NCI-H2023 | 0.512
HCC-15 | 0.673
NCI-H1793 | 0.814
PC-14 | 0.307
EKVX | 0.852
LC-2-ad | 0.703
NCI-H1944 | 0.385
NCI-H1975 | 0.843
RERF-LC-KJ | 1.03
ABC-1 | 0.627
NCI-H358 | 0.582
NCI-H650 | 0.379
PC-3 [JPC-3] | 1.11

Same assay, conditions: first compound 0.1265 µM

Cell Line | relative viability
CAL-12T | 0.713
NCI-H1651 | 0.165
EPLC-272H | 0.883
NCI-H2228 | 0.458
NCI-H1792 | 0.336
NCI-H1355 | 0.709
NCI-H3122 | 0.614
NCI-H1437 | 0.612
NCI-H1755 | 0.769
NCI-H2023 | 0.459
HCC-15 | 0.667
NCI-H1793 | 0.73
PC-14 | 0.261
EKVX | 0.851
LC-2-ad | 0.629
NCI-H1944 | 0.393
NCI-H1975 | 0.754
RERF-LC-KJ | 0.872
ABC-1 | 0.689
NCI-H358 | 0.507
NCI-H650 | 0.362
PC-3 [JPC-3] | 1.08

Same assay, conditions: first compound 0.4 µM

Cell Line | relative viability
CAL-12T | 0.576
NCI-H1651 | 0.159
EPLC-272H | 0.714
NCI-H2228 | 0.358
NCI-H1792 | 0.231
NCI-H1355 | 0.648
NCI-H3122 | 0.557
NCI-H1437 | 0.62
NCI-H1755 | 0.648
NCI-H2023 | 0.323
HCC-15 | 0.57
NCI-H1793 | 0.547
LC-2-ad | 0.63
NCI-H1944 | 0.286
NCI-H1975 | 0.742
RERF-LC-KJ | 0.889
ABC-1 | 0.982
NCI-H358 | 0.626
NCI-H650 | 0.365
PC-3 [JPC-3] | 0.969

Same assay, conditions: first compound 1.265 µM

Cell Line | relative viability
CAL-12T | 0.742
NCI-H1651 | 0.131
EPLC-272H | 0.676
NCI-H2228 | 0.301
NCI-H1792 | 0.0956
NCI-H1355 | 0.471
NCI-H3122 | 0.407
NCI-H1437 | 0.677
NCI-H1755 | 0.493
NCI-H2023 | 0.152
HCC-15 | 0.38
NCI-H1793 | 0.316
PC-14 | 0.204
LC-2-ad | 0.536
NCI-H1944 | 0.228
NCI-H1975 | 0.748
RERF-LC-KJ | 0.747
ABC-1 | 0.702
NCI-H358 | 0.595
NCI-H650 | 0.271
PC-3 [JPC-3] | 1.09

Same assay, conditions: first compound 4 µM

Cell Line | relative viability
CAL-12T | 0.67
NCI-H1651 | 0.141
EPLC-272H | 0.641
NCI-H2228 | 0.264
NCI-H1792 | 0.116
NCI-H1355 | 0.566
NCI-H3122 | 0.367
NCI-H1437 | 0.537
NCI-H1755 | 0.448
NCI-H2023 | 0.203
HCC-15 | 0.386
NCI-H1793 | 0.285
PC-14 | 0.167
EKVX | 0.66
LC-2-ad | 0.511
NCI-H1944 | 0.288
NCI-H1975 | 0.75
RERF-LC-KJ | 0.835
ABC-1 | 0.573
NCI-H358 | 0.464
NCI-H650 | 0.285
PC-3 [JPC-3] | 1.18

Each cell line was assayed with c1ccc2c(CCNc3ccc(Nc4ccncc4)cc3)c[nH]c2c1 [Serdemetan] + CC(=O)c1c(C)c2cnc(Nc3ccc(N4CCNCC4)cn3)nc2n(C2CCCC2)c1=O [Palbociclib] (partner 0.5 µM) in the same assay as above. Details: first compound 0.04 µM.
Method in brief: as §1

Cell Line | relative viability
CAL-12T | 0.467
NCI-H1651 | 0.51
EPLC-272H | 0.337
NCI-H2228 | 0.644
NCI-H1792 | 0.661
NCI-H1355 | 0.381
NCI-H3122 | 0.192
NCI-H1437 | 0.289
NCI-H1755 | 0.45
NCI-H2023 | 0.355
HCC-15 | 0.697
NCI-H1793 | 0.355
PC-14 | 0.546
EKVX | 0.456
LC-2-ad | 0.438
NCI-H1944 | 0.364
NCI-H1975 | 0.691
RERF-LC-KJ | 1.06
ABC-1 | 0.553
NCI-H358 | 0.134
NCI-H650 | 0.332
PC-3 [JPC-3] | 0.562

Same assay, conditions: first compound 0.1265 µM

Cell Line | relative viability
CAL-12T | 0.422
NCI-H1651 | 0.499
EPLC-272H | 0.329
NCI-H2228 | 0.61
NCI-H1792 | 0.7
NCI-H1355 | 0.381
NCI-H3122 | 0.227
NCI-H1437 | 0.32
NCI-H1755 | 0.42
NCI-H2023 | 0.328
HCC-15 | 0.757
NCI-H1793 | 0.325
PC-14 | 0.546
EKVX | 0.374
LC-2-ad | 0.449
NCI-H1944 | 0.355
NCI-H1975 | 0.662
RERF-LC-KJ | 0.962
ABC-1 | 0.586
NCI-H358 | 0.135
NCI-H650 | 0.365
PC-3 [JPC-3] | 0.492

Same assay, conditions: first compound 0.4 µM

Cell Line | relative viability
CAL-12T | 0.35
NCI-H1651 | 0.523
EPLC-272H | 0.33
NCI-H2228 | 0.511
NCI-H1792 | 0.596
NCI-H1355 | 0.366
NCI-H3122 | 0.224
NCI-H1437 | 0.334
NCI-H1755 | 0.445
NCI-H2023 | 0.341
HCC-15 | 0.668
NCI-H1793 | 0.308
LC-2-ad | 0.507
NCI-H1944 | 0.31
NCI-H1975 | 0.434
RERF-LC-KJ | 0.975
ABC-1 | 0.694
NCI-H358 | 0.132
NCI-H650 | 0.344
PC-3 [JPC-3] | 0.528

Same assay, conditions: first compound 1.265 µM

Cell Line | relative viability
CAL-12T | 0.424
NCI-H1651 | 0.358
EPLC-272H | 0.256
NCI-H2228 | 0.115
NCI-H1792 | 0.395
NCI-H1355 | 0.371
NCI-H3122 | 0.205
NCI-H1437 | 0.359
NCI-H1755 | 0.344
NCI-H2023 | 0.263
HCC-15 | 0.56
NCI-H1793 | 0.242
PC-14 | 0.467
LC-2-ad | 0.471
NCI-H1944 | 0.253
NCI-H1975 | 0.331
RERF-LC-KJ | 1.04
ABC-1 | 0.611
NCI-H358 | 0.122
NCI-H650 | 0.282
PC-3 [JPC-3] | 0.467

Same assay, conditions: first compound 4 µM

Cell Line | relative viability
CAL-12T | 0.539
NCI-H1651 | 0.29
EPLC-272H | 0.3
NCI-H2228 | 0.233
NCI-H1792 | 0.56
NCI-H1355 | 0.366
NCI-H3122 | 0.214
NCI-H1437 | 0.315
NCI-H1755 | 0.39
NCI-H2023 | 0.215
HCC-15 | 0.556
NCI-H1793 | 0.271
PC-14 | 0.346
EKVX | 0.282
LC-2-ad | 0.44
NCI-H1944 | 0.221
NCI-H1975 | 0.783
RERF-LC-KJ | 0.824
ABC-1 | 0.459
NCI-H358 | 0.117
NCI-H650 | 0.287
PC-3 [JPC-3] | 0.519
